In PubChem BioAssay (NCI):
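These data come from cells grown in 96-well plates and exposed to compound for 48 hours at five concentrations. Definition used: TGI = concentration required for complete inhibition of growth.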

Tests used:
Test in all cases: inhibition of tumour cell growth, NCI panel, 48 h
[1] = system: HT29 colon
[2] = system: SNB-19 CNS
[3] = system: HOP-18 NSCLC
[4] = system: DMS 114 small cell lung
[5] = system: HCT-116 colon
[6] = system: CAKI-1 renal
[7] = system: KM12 colon
[8] = system: SW-620 colon
[9] = system: SNB-75 CNS
[10] = system: EKVX NSCLC
[11] = system: RPMI-8226 leukemia
[12] = system: SF-295 CNS
[13] = system: K-562 leukemia
[14] = system: U251 CNS
[15] = system: HOP-92 NSCLC
[16] = system: HCC-2998 colon
[17] = system: SR leukemia
[18] = system: CCRF-CEM leukemia
[19] = system: OVCAR-5 ovarian
[20] = system: OVCAR-8 ovarian
[21] = system: RXF 393 renal
[22] = system: SN12C renal
[23] = system: UACC-62 melanoma
[24] = system: NCI-H23 lung
[25] = system: NCI-H226 lung
[26] = system: COLO 205 colon
[27] = system: 786-0 renal
[28] = system: SK-MEL-5 melanoma
[29] = system: SF-268 CNS
[30] = system: OVCAR-4 ovarian
[31] = system: UACC-257 melanoma
[32] = system: ACHN renal
[33] = system: LXFL 529 NSCLC
[34] = system: A549 NSCLC
[35] = system: SNB-78 CNS
[36] = system: NCI-H460 lung
[37] = system: RXF-631 renal
[38] = system: HL-60(TB) leukemia
[39] = system: SK-OV-3 ovarian
[40] = system: M19-MEL melanoma
[41] = system: HOP-62 NSCLC
[42] = system: XF 498 CNS
[43] = system: LOX IMVI melanoma
[44] = system: SK-MEL-28 melanoma
[45] = system: IGROV1 ovarian
[46] = system: SK-MEL-2 melanoma
[47] = system: M14 melanoma
[48] = system: UO-31 renal
[49] = system: A498 renal
[50] = system: SF-539 CNS
[51] = system: HCT-15 colon
[52] = system: KM20L2 colon
[53] = system: DMS 273 small cell lung
[54] = system: TK-10 renal
[55] = system: MOLT-4 leukemia
[56] = system: MALME-3M melanoma
[57] = system: DLD-1 colon
[58] = system: NCI-H522 lung
[59] = system: OVCAR-3 ovarian

## O=C1NC(=S)NC(=O)C1=Cc1ccc([N+](=O)[O-])o1
[1]
  TGI: 48.7 µM
[2]
  TGI: > 100 µM
[3]
  TGI: 35.3 µM
[4]
  TGI: 34.6 µM
[5]
  TGI: 34 µM
[6]
  TGI: 37 µM
[7]
  TGI: > 100 µM
[8]
  TGI: 41.6 µM
[9]
  TGI: 31.6 µM
[10]
  TGI: 42.8 µM
[11]
  TGI: 54 µM
[12]
  TGI: > 100 µM
[13]
  TGI: 86.7 µM
[14]
  TGI: > 100 µM
[15]
  TGI: 36.3 µM
[16]
  TGI: > 100 µM
[17]
  TGI: 43.9 µM
[18]
  TGI: 73.6 µM
[19]
  TGI: 34.6 µM
[20]
  TGI: 66.9 µM
[21]
  TGI: 38.3 µM
[22]
  TGI: 29.8 µM
[23]
  TGI: 39.1 µM
[24]
  TGI: 31.9 µM
[25]
  TGI: > 100 µM
[26]
  TGI: 38.2 µM
[27]
  TGI: 36.5 µM
[28]
  TGI: 44.5 µM
[29]
  TGI: > 100 µM
[30]
  TGI: 31.1 µM
[31]
  TGI: > 100 µM
[32]
  TGI: 34.6 µM
[33]
  TGI: 30.5 µM
[34]
  TGI: > 100 µM
[35]
  TGI: 49.3 µM
[36]
  TGI: > 100 µM
[37]
  TGI: 33.5 µM
[38]
  TGI: 87.6 µM
[39]
  TGI: > 100 µM
[40]
  TGI: 36.8 µM
[41]
  TGI: > 100 µM
[42]
  TGI: 52.3 µM
[43]
  TGI: 38.7 µM
[44]
  TGI: 47.7 µM
[45]
  TGI: 60.1 µM
[46]
  TGI: > 100 µM
[47]
  TGI: 29.5 µM
[48]
  TGI: > 100 µM
[49]
  TGI: > 100 µM
[50]
  TGI: 61.1 µM
[51]
  TGI: 32.6 µM
[52]
  TGI: 43.1 µM
[53]
  TGI: 37.8 µM
[54]
  TGI: > 100 µM
[55]
  TGI: 43.4 µM
[56]
  TGI: 28.4 µM
[57]
  TGI: 39 µM
[58]
  TGI: 35.1 µM

## COc1ccc(N=Nc2c(-c3ccccc3)nn(C(=O)CC(=O)Nc3ccc(OC)cc3)c2-c2ccccc2)cc1
[59]
  TGI: > 100 µM
[1]
  TGI: > 100 µM
[2]
  TGI: > 100 µM
[3]
  TGI: > 100 µM
[4]
  TGI: > 100 µM
[5]
  TGI: > 100 µM
[6]
  TGI: > 100 µM
[7]
  TGI: > 100 µM
[8]
  TGI: > 100 µM
[9]
  TGI: 37.9 µM
[10]
  TGI: > 100 µM
[11]
  TGI: > 100 µM
[12]
  TGI: > 100 µM
[13]
  TGI: > 100 µM
[14]
  TGI: > 100 µM
[15]
  TGI: 50 µM
[16]
  TGI: > 100 µM
[18]
  TGI: 53.1 µM
[19]
  TGI: > 100 µM
[20]
  TGI: > 100 µM
[22]
  TGI: > 100 µM
[23]
  TGI: > 100 µM
[24]
  TGI: > 100 µM
[25]
  TGI: > 100 µM
[26]
  TGI: > 100 µM
[27]
  TGI: > 100 µM
[28]
  TGI: > 100 µM
[29]
  TGI: > 100 µM
[30]
  TGI: > 100 µM
[31]
  TGI: > 100 µM
[32]
  TGI: > 100 µM
[33]
  TGI: > 100 µM
[34]
  TGI: > 100 µM
[35]
  TGI: > 100 µM
[36]
  TGI: > 100 µM
[37]
  TGI: > 100 µM
[38]
  TGI: > 100 µM
[39]
  TGI: > 100 µM
[40]
  TGI: > 100 µM
[41]
  TGI: > 100 µM
[42]
  TGI: 76.1 µM
[43]
  TGI: > 100 µM
[44]
  TGI: > 100 µM
[45]
  TGI: > 100 µM
[46]
  TGI: > 100 µM
[48]
  TGI: > 100 µM
[49]
  TGI: > 100 µM
[50]
  TGI: 59 µM
[51]
  TGI: > 100 µM
[53]
  TGI: > 100 µM
[54]
  TGI: > 100 µM
[55]
  TGI: > 100 µM
[56]
  TGI: > 100 µM
[57]
  TGI: > 100 µM
[58]
  TGI: > 100 µM
